Tests used:
[1] = test system: bovine PTH induced bone resorption; test: In vitro fetal rat long bone model of bone resorption (45Ca release); type: cell-based; conditions: ^45Ca release from fetal rat long bones, Bovine PTH (1-34) at 1x10^-8M, Day 6
Description: An in vitro fetal rat long bone model was used to study the anti-bone resorptive effect of the compounds of formula (I). Bovine PTH was used to induce bone resorption in vitro. The bone resorptive effects were expressed by the amounts of ^45Ca released from the ^45Ca pre-labelled fetal rat long bones into the culture medium. The inhibitory effect of the compounds of formula (I) against bovine PTH induced bone resorption was expressed as mean percent inhibition ± sem.
^45Ca-prelabelled fetal rat long bones (from forearms) were dissected and cultured in Linbro dishes at 37°C overnight BGJb medium, supplemented with lmg/ml BSA. There were five pairs of bones in each group. The compounds of formula (I) were dissolved in ethanol first, then diluted to various concentrations and added simultaneously with Bovine PTH (1-34) at […] on Day 1. […] The assay was terminated on Day 6 with one media change on Day 3.
At the end of each medium change, the ^45Ca present in the culture medium was counted. The remaining bones were digested with 0.1N HCl and the ^45Ca presented in the bone digest was also counted. The results are expressed as % of the total ^45Ca released from each pair of bones. Bovine PTH at 1x10^-8M induces bone resorption to the maximum level which is set as 100% and this concentration was used as standard. The level of base line bone resorption in the presence of medium only was set as 0%. All compound-treated groups were compared with bovine PTH (1-34) at 1x10^-8M.

HFC = biological target: T1, HFC (Homo sapiens, UniProt P03956); test: In vitro enzyme inhibition assay (fluorescence, thiopeptide substrate), HFC; type: biochemical
T1 sequence (P03956 100-469): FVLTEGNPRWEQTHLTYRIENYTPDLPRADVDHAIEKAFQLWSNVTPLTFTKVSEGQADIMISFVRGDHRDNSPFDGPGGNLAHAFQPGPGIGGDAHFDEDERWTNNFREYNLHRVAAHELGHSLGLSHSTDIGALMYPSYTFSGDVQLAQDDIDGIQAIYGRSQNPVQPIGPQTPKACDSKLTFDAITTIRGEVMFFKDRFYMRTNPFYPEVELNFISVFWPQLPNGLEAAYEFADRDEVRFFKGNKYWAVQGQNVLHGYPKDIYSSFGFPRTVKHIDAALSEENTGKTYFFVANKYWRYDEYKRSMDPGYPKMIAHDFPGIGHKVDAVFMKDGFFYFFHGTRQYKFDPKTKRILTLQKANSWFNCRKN

[2] = test system: release of ^35S-labelled glycosaminoglycans (GAG's) from cartilage explants; test: Inhibition of release of 35S-labelled glycosaminoglycans from cartilage explants; type: cell-based; conditions: Bos taurus; bovine knee joint cartilage explants, release induced by rhIL-1-alpha
Description: This assay determines if the compounds of formula (I) inhibit the release of ^35S-labelled glycosaminoglycans (GAG's) from cartilage explants.
Small cartilage explants (3 mm diameter) were prepared from freshly sacrificed bovine knee joints and labeled with ^35SO4. ^35S-labelled glycosaminoglycans (GAG's) are released into the culture medium in response to the addition of rhIL-1-alpha, which induces the expression of chondrocyte matrix metalloproteases (MMP's), including stromelysin and collagenase. The percent inhibition of labeled GAG's was corrected for spontaneous release in the absence of rh1L-1-alpha. Results for each group represent the mean ± the S.E.M. for five explants.

STROM. = STROM. (Homo sapiens, UniProt P08254); test: In vitro enzyme inhibition assay (fluorescence, thiopeptide substrate), STROM.; type: biochemical
STROM., sequence (P08254 100-477): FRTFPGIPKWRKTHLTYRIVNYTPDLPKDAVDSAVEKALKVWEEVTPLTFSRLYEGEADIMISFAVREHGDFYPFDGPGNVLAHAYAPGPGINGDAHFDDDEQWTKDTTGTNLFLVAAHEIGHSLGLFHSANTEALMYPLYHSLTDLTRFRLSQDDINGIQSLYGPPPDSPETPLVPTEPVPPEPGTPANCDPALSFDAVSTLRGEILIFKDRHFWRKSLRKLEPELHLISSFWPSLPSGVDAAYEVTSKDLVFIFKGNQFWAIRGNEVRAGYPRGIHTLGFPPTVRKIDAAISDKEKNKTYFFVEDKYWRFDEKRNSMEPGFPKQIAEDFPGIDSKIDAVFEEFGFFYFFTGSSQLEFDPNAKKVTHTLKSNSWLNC

| SMILES | IC50 [1] [nM] | IC50 (HFC) [nM] | EC50 [2] [nM] | IC50 (STROM.) [nM] | IC50 ([1]; 144 h) [nM] |
| --- | --- | --- | --- | --- | --- |
| COC(=O)c1ccc(NC(=O)[C@H](Cc2c[nH]c3ccccc23)NC(=O)C(CC(=O)NO)CC(C)C)cc1 (single isomer, unassigned) [Compound 3, N-(4-methyl-2-(N"-hydroxycarbamoyl)methylpentanoyl)-L-tryptophan-N'-(4-methoxycarbonylphenyl)carboxamide] | 50 |  |  |  |  |
| COC(=O)c1ccc(NC(=O)[C@H](Cc2c[nH]c3ccccc23)NC(=O)C(CC(=O)NO)CC(C)C)cc1 (single isomer, unassigned) [Compound 4, N-(4-methyl-2-(N"-hydroxycarbamoyl)methylpentanoyl)-L-tryptophan-N'-(4-methoxycarbonylphenyl)carboxamide] | ≥ 5000 |  |  |  |  |
| COC(=O)c1ccc(NC(=O)[C@H](CCSC)NC(=O)C(CC(C)C)CP(=O)(O)CSc2ccc3ccccc3n2)cc1 (stereo partly drawn) [Compound 1, N-(2-(hydroxy)(quinolin-2-ylthiomethyl)phosphinoylmethyl-4-methylpentanoyl)-L-methionine-N'-(4-methoxycarbonylphenyl)carboxamide] | ≥ 5000 |  |  |  |  |
| COC(=O)c1ccc(NC(=O)[C@H](CC(C)C)NC(=O)C(CC(=O)NO)CC(C)C)cc1 (stereo partly drawn) [Compound 2, N-(4-methyl-2-(N"-hydroxycarbamoyl)methylpentanoyl)-L-leucine-N'-(4-methoxycarbonylphenyl)carboxamide] |  | 8.4 | 3500 | 1.4 | 270 |
